Earlier results on one compound are cited in US20260216230A1, “SERRATIA ANTICANCER POLYSACCHARIDE COMPOSITIONS AND METHODS” (Board of Supervisors of Louisiana State University and …, priority 2023, published 2026).

In the series the test system is refractory Stage 4 patients. As to conditions: phase I.

Regarding `CC(=O)O[C@H]1C(=O)[C@@]2(C)[C@H]([C@H](OC(=O)c3ccccc3)[C@]3(O)C[C@H](OC(=O)[C@H](O)[C@@H](NC(=O)c4ccccc4)c4ccccc4)C(C)=C1C3(C)C)[C@]1(OC(C)=O)CO[C@@H]1C[C@@H]2O` [Taxol], the effectivity was 12%.
